The results in this text go back to PubChem BioAssay AID256 (DTP/NCI, 2004).

The test system of the test is CD2F1 mice, L1210 leukemia ip, survival T/C. The test can be described thus: NCI In Vivo Anticancer Drug Screen. Data for tumor model L1210 Leukemia (intraperitoneal) in CD2F1 (CDF1) mice. The settings on record: endpoint: mean survival time, higher = longer survival. In outline:
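Ratio T/C, where T is the treated-group value and C the vehicle-dosed control value, from mice implanted with a transplantable tumor.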

Setting [1] is: dose: 100.0 mg/kg/injection, schedule: Q04DX003 (ip), vehicle: saline with Tween-80.
Setting [2] is: dose: 200.0 mg/kg/injection, schedule: Q04DX003 (ip), vehicle: saline with Tween-80.
[3] abbreviates: dose: 400.0 mg/kg/injection, schedule: Q04DX003 (ip), vehicle: saline with Tween-80.
Setting [4] is: dose: 100.0 mg/kg/injection, schedule: Q04DX003 (ip), vehicle: saline.
The mark [5] stands for this setting: dose: 200.0 mg/kg/injection, schedule: Q04DX003 (ip), vehicle: saline.
Where [6] appears, read: dose: 400.0 mg/kg/injection, schedule: Q04DX003 (ip), vehicle: saline.
[7] abbreviates: dose: 100.0 mg/kg/injection, schedule: Q01DX009 (ip), vehicle: other.
Where [8] appears, read: dose: 200.0 mg/kg/injection, schedule: Q01DX009 (ip), vehicle: other.
Setting [9] is: dose: 12.5 mg/kg/injection, schedule: Q01DX009 (ip), vehicle: saline.
[10] abbreviates: dose: 50.0 mg/kg/injection, schedule: Q01DX009 (ip), vehicle: saline.
Setting [11] is: dose: 100.0 mg/kg/injection, schedule: Q01DX009 (ip), vehicle: saline.
Setting [12] is: dose: 100.0 mg/kg/injection, schedule: Q01DX001 (ip), vehicle: saline with Tween-80.
[13] abbreviates: dose: 200.0 mg/kg/injection, schedule: Q01DX001 (ip), vehicle: saline with Tween-80.
Setting [14] is: dose: 400.0 mg/kg/injection, schedule: Q01DX001 (ip), vehicle: saline with Tween-80.

“And” between values parts separate entries of the source, which are not always exact repeats. Identical values can stand only once. Toxic doses and inconclusive results are not listed.

For the compound `CCC1(C)CCC2C(=CCC3C(C)(C(=O)O)CCCC23C)C1` (stereo not drawn), the T/C is 103 % of control under setting [1], 88 % of control under setting [2] and 89 % of control under setting [3].

For `CC(N)CCC(C)(C)O` (stereo not drawn), the T/C under setting [4] is 92 % of control and the T/C under setting [5] was 100 % of control.

Take `COC(=O)C(=O)c1ccccc1`: the T/C runs as follows: under setting [4], 96 % of control; under setting [5], 102 % of control; under setting [6], 103 % of control.

Regarding `CC1COC(C(=O)O)(c2ccccc2)O1` (stereo not drawn), the T/C reads like this: (dose: 100.0 mg/kg/injection, schedule: Q04DX002 (ip), vehicle: saline) 96 % of control; (dose: 200.0 mg/kg/injection, schedule: Q04DX002 (ip), vehicle: saline) 108 % of control; (dose: 400.0 mg/kg/injection, schedule: Q04DX002 (ip), vehicle: saline) 100 % of control.

For `CCOC(=O)Nc1ccc(F)cc1`, the T/C runs as follows: under setting [7], 98 % of control; under setting [8], 98 % of control; (dose: 400.0 mg/kg/injection, schedule: Q01DX009 (ip), vehicle: other) 107 % of control.

As to `N=C1c2ccccc2-c2ccccc21`, the T/C is, setting by setting: (dose: 50.0 mg/kg/injection, schedule: Q01DX009 (ip), vehicle: saline with Tween-80) 101 % of control; (dose: 100.0 mg/kg/injection, schedule: Q01DX009 (ip), vehicle: saline with Tween-80) 96 % of control.

For `O=c1nc(OCCO)c([N+](=O)[O-])c(C(Cl)(Cl)Cl)[nH]1`, the T/C reads like this: under setting [1], 96 % of control; under setting [2], 97 % of control; under setting [3], 89 % of control.

As to `O=c1[nH]cc(F)c(=O)n1C1CCCCO1` (stereo not drawn), the T/C was 121 % of control under setting [9]; 98 % of control (dose: 12.5 mg/kg/injection, schedule: Q04DX003 (ip), vehicle: saline); 102 % of control (dose: 25.0 mg/kg/injection, schedule: Q04DX003 (ip), vehicle: saline); 156 % of control under setting [10]; 98 % of control (dose: 50.0 mg/kg/injection, schedule: Q04DX003 (ip), vehicle: saline); 175 % of control and 184 % of control under setting [11]. For the same compound, the T/C under setting [4] was 100 % of control.

On to `CN(C)N=Nc1ccc(C(=O)N/N=C/c2ccc([N+](=O)[O-])cc2)cc1`, for which the T/C by setting is: under setting [4], 97 % of control; under setting [5], 93 % of control; under setting [6], 93 % of control.

In the case of `CC12CCC(=O)C=C1CCC1C2C(=O)CC2(C)C1CCC2(O)C(=O)Cn1ccc(=O)[nH]c1=O` (stereo not drawn), the T/C is 91 % of control (dose: 12.5 mg/kg/injection, schedule: Q04DX003 (ip), vehicle: Klucel (hydroxypropylcellulose) (HPC)); 101 % of control (dose: 25.0 mg/kg/injection, schedule: Q04DX003 (ip), vehicle: Klucel (hydroxypropylcellulose) (HPC)); 98 % of control (dose: 50.0 mg/kg/injection, schedule: Q04DX003 (ip), vehicle: Klucel (hydroxypropylcellulose) (HPC)); 96 % of control (dose: 100.0 mg/kg/injection, schedule: Q04DX003 (ip), vehicle: Klucel (hydroxypropylcellulose) (HPC)); 98 % of control (dose: 200.0 mg/kg/injection, schedule: Q04DX003 (ip), vehicle: Klucel (hydroxypropylcellulose) (HPC)).

As to `CCCCCCCCC(CCCCCCCC)CCCC1CCCC1`, the T/C reads like this: under setting [12], 95 % of control; under setting [13], 110 % of control; under setting [14], 103 % of control.

Take `C(/C=C\c1ccccc1)=C(/C=C/c1ccccc1)/C=C/c1ccccc1`: the T/C reads like this: under setting [13], 89 % of control; under setting [14], 89 % of control.

`CN(CO)c1nc(N(C)CO)nc(N(C)CO)n1`: the T/C by setting is: under setting [9], 106 % of control and 108 % of control; (dose: 25.0 mg/kg/injection, schedule: Q01DX009 (ip), vehicle: saline) 105 % of control and 108 % of control; under setting [10], 118 % of control and 110 % of control; under setting [11], 117 % of control.

In the case of `Cc1nc(C)c(C(=O)O)cc1C(=O)O`, the T/C was 102 % of control under setting [4], 96 % of control under setting [5] and 98 % of control under setting [6].

With `O=c1[nH]c2c(c(=O)n1-c1ccccc1)CCO2`, the T/C runs as follows: (dose: 100.0 mg/kg/injection, schedule: Q01DX001 (ip), vehicle: saline) 98 % of control; (dose: 200.0 mg/kg/injection, schedule: Q01DX001 (ip), vehicle: saline) 91 % of control; (dose: 400.0 mg/kg/injection, schedule: Q01DX001 (ip), vehicle: saline) 98 % of control.

Turning to `Cn1c(=O)c2c(ncn2CC(=O)NNC(=S)Nc2ccccc2)n(C)c1=O`, the T/C by setting is: (dose: 12.5 mg/kg/injection, schedule: Q01DX005 (ip), vehicle: distilled water + Tween-80) 121 % of control; (dose: 25.0 mg/kg/injection, schedule: Q01DX005 (ip), vehicle: distilled water + Tween-80) 121 % of control; (dose: 50.0 mg/kg/injection, schedule: Q01DX005 (ip), vehicle: distilled water + Tween-80) 93 % of control; (dose: 100.0 mg/kg/injection, schedule: Q01DX005 (ip), vehicle: distilled water + Tween-80) 106 % of control; (dose: 200.0 mg/kg/injection, schedule: Q01DX005 (ip), vehicle: distilled water + Tween-80) 93 % of control.

Regarding `CC1(C)/C(=N/Nc2ccc([N+](=O)[O-])cc2[N+](=O)[O-])C=Cc2ccccc21`, the T/C (dose: 12.5 mg/kg/injection, schedule: Q01DX009 (ip), vehicle: other) is 105 % of control; the T/C (dose: 25.0 mg/kg/injection, schedule: Q01DX009 (ip), vehicle: other) is 94 % of control; the T/C under setting [7] was 90 % of control; the T/C under setting [8] was 94 % of control.

Regarding `COC(=O)CCC(=O)c1cccc(C)c1`, the T/C runs as follows: (dose: 200.0 mg/kg/injection, schedule: Q04DX003 (ip), vehicle: acetone) 91 % of control; (dose: 400.0 mg/kg/injection, schedule: Q04DX003 (ip), vehicle: acetone) 89 % of control.

As for `NC1=CC(=O)C(c2ccccc2)C1=O` (stereo not drawn), the T/C is 100 % of control under setting [12], 92 % of control under setting [13] and 92 % of control under setting [14].
